# Laboratory results from patent US6756054B1, “Polycationic sterol derivatives as transfection agents” (IC-VEC Limited, priority 1996, dated 2004).
# Experiments:
# [1] = system: lungs of female BALB/c mice; test: in vivo transfection of mouse lung with pCF1-CAT plasmid by intranasally instilled cationic liposome/DNA complexes, CAT activity in lung homogenates; details: for rank of DC-Chol analogues for in vivo gene delivery: female BALB/c mice lung, pCF1-CAT plasmid, optimal formulation, CAT activity after 2 days (FIG. 25)
# Method: FIG. 25 presents the rank order of DC-Chol polyamine analogues transfecting the lungs of female BALB/c mice with the pCF1-CAT plasmid. Mice were instilled with a solution of the plasmid (4 mM nucleotide concentration) and the optimal quantity and ratio of cationic liposome, in a total volume of 100 μl. Gene delivery activity was determined as a function of chloramphenicol acetyl transferase activity in lung homogenates after 2 days.
# Data points were from separate experiments with each optimal formulation tested in 4 BALB/c mice. The ratios in curved brackets refer to the DC-Chol analogue:DOPE 2 molar ratio. The numbers in square brackets refer to compound serial numbers. Where appropiate DC-Chol analogue name abbreviations are also included (see experimental).
# The ability of cationic liposomes containing the different DC-Chol polyamine analogues to mediate gene delivery was analysed both in vitro and in vivo. Cationic liposomes were formulated by hydrating a dried lipid film, containing DC-Cholanalogue and DOPE 2 in an appropriate molar ratio of either 1:0, 1:1, 1:2 or 2:1 respectively. and vortex mixing.^[32] Cationic liposome/plasmid DNA complexes were then prepared by adding appropriately diluted cationic liposome suspensions into equal volumes of aqueous plasmid DNA solutions at 30° C. and allowing the mixture to equilibrate to ambient temperature over 15 min.^[32] In vitro studies were then performed with immortalised cystic fibrosis airway epithelial (CFT1) cells followed by in vivo studies in which cationic liposome/plasmid DNA complexes were instilled intranasally into the lungs of female BALB/c mice.^[32] Typically, cationic liposome gene delivery was first optimised in vitro so as to establish the best molar ratio of cationic liposome to plasmid DNA (DNA concentration was expressed as nucleotide concentration) as well as the best absolute quantities of both, as illustrated (FIG. 23). This optimised combination was then tested in vivo. The in vitro results are shown (FIG. 24). […] The analogues were 8a′, 8b′, 8e′, 8f′, 13a′ and 17b′, the first four being triamines, the fifth a tetramine and the sixth a pentamine. With one exception, 8f′, these polyamine analogues contain inter-nitrogen methylene group spacings not normally associated with the natural polyamines spermidine 18′ (see for example FIG. 29), spermine 19′ (see for example FIG. 29) and pentamine 20′ (see for example FIG. 29) upon which these structures are based. In vivo (FIG. 25), the best DC-Chol analogues were 13c′, 13f′ and especially 17a′. Both 17a′ and 13c′ also contain unnatural methylene group spacings. […]
# [2] = system: CFT1 cells; test: in vitro transfection of CFT1 cells with pCF1-βGal plasmid by cationic liposomes (DC-Chol analogue/DOPE), β-galactosidase expression; assay type: cell-based; details: for rank of DC-Chol analogues for in vitro gene delivery: most effective triamine, tetramine and pentamine; for gene delivery efficiency in vitro over and above DC-Chol/DOPE liposomes: pCF1-βGal plasmid, liposomes with DOPE, relative to DC-Chol/DOPE liposomes formulated in a similar way (FIG. 24)
# Method: FIG. 23 is an example of in vitro optimisation of pCF1-βGal plasmid transfection of CFT1 cells in vitro using complexes of pCF1-βGal and cationic liposomes formulated from DC-Chol analogue 8f′ and DOPE 2 (1:1) molar ratio. CFT1 cells were transfected with an array of different cationic liposome and plasmid ratios in a 96-well plate. The extent of transfection in each well was determined after 2 days by measuring the levels of β-galactosidase expression. Plasmid DNA concentration is expressed as the concentration of nucleotides assuming an average nucleotide FWt of 330. Cationic liposome concentration is expressed in terms of the concentration of the constituent DC-Chol analogue 8f′ alone.
# FIG. 24 presents rank order of DC-Chol polyamine analogues transfecting CFT1 cells in vitro with the pCF1-βGal plasmid. Gene delivery activity is expressed as a proportion of the activity measured with standard liposomes containing DC-Chol 1 and DOPE 2. The data shown are the averages of four separate experiments, each performed in triplicate.
# The ratios in curved brackets refer to the DC-Chol analogue:DOPE 2 molar ratio used to formulate the liposomes. The numbers in square brackets refer to compound serial numbers. Where appropiate DC-Chol analogue name abbreviations are also included (see experimental).
# The ability of cationic liposomes containing the different DC-Chol polyamine analogues to mediate gene delivery was analysed both in vitro and in vivo. Cationic liposomes were formulated by hydrating a dried lipid film, containing DC-Cholanalogue and DOPE 2 in an appropriate molar ratio of either 1:0, 1:1, 1:2 or 2:1 respectively. and vortex mixing.^[32] Cationic liposome/plasmid DNA complexes were then prepared by adding appropriately diluted cationic liposome suspensions into equal volumes of aqueous plasmid DNA solutions at 30° C. and allowing the mixture to equilibrate to ambient temperature over 15 min.^[32] In vitro studies were then performed with immortalised cystic fibrosis airway epithelial (CFT1) cells followed by in vivo studies in which cationic liposome/plasmid DNA complexes were instilled intranasally into the lungs of female BALB/c mice.^[32] Typically, cationic liposome gene delivery was first optimised in vitro so as to establish the best molar ratio of cationic liposome to plasmid DNA (DNA concentration was expressed as nucleotide concentration) as well as the best absolute quantities of both, as illustrated (FIG. 23). This optimised combination was then tested in vivo. The in vitro results are shown (FIG. 24). […] The analogues were 8a′, 8b′, 8e′, 8f′, 13a′ and 17b′, the first four being triamines, the fifth a tetramine and the sixth a pentamine. With one exception, 8f′, these polyamine analogues contain inter-nitrogen methylene group spacings not normally associated with the natural polyamines spermidine 18′ (see for example FIG. 29), spermine 19′ (see for example FIG. 29) and pentamine 20′ (see for example FIG. 29) upon which these structures are based. In vivo (FIG. 25), the best DC-Chol analogues were 13c′, 13f′ and especially 17a′. Both 17a′ and 13c′ also contain unnatural methylene group spacings.
# For the in vitro and in vivo tests, a dried lipid film containing the given DC-Chol analogue and DOPE 2 (in either a 1:0, 1:1, 1:2 or 2:1 respective molar ratio), was hydrated for 10 min in sterile pyrogen-free water and then liposomes were produced by 2 min vortex mixing. The average diameter was between 200-400 nm.^[32] Cationic liposomes containing DC-Chol 1 and DOPE 2 were formulated in the same way described previously.^[24, 36]
# Cationic liposome/plasmid DNA complexes were then prepared as follows.
# Both cationic liposome suspensions and DNA (either pCF1-βGal plasmid expressing β-galactosidase or pCF1-CAT expressing chloramphenicol acetyl transferase)^[32] solutions were separately pre-incubated for 5 min at 30° C., before being diluted to the appropriate final concentrations and then combined. […]
# [3] = reported; cited from earlier work
# [4] = mouse lung, pCF1-CAT plasmid (FIG. 25)
Compound,rank of DC-Chol analogues for in vivo gene delivery [1],rank of DC-Chol analogues for in vitro gene delivery [2],gene delivery efficiency in vitro over and above DC-Chol/DOPE liposomes [2],also measured
"CC(C)CCCC(C)C1CCC2C3CC=C4CC(OC(=O)NCCCNCCCCNCCCN)CCC4(C)C3CCC12C (centres unmarked) [13f′, N^1-cholesteryloxy-carbonyl-4,9-diaza-1,12-dodecanediamine]",best and most effective,–,–,–
"N^10-cholesteryloxycarbonyl-4,8,13-triaza-1,16-hexadecanediamine [17b′]",–,most effective,significant improvements,–
"CC(C)CCCC(C)C1CCC2C3CC=C4CC(OC(=O)NCCCNCCCN)CCC4(C)C3CCC12C (centres unmarked) [8e′, 4-aza-N′-cholesteryloxycarbonyl-1,7-heptanediamine]",–,most effective,significant improvements,–
"CC(C)CCC[C@@H](C)[C@H]1CC[C@H]2[C@@H]3CC=C4C[C@@H](OC(=O)NCCNCCCNCCN)CC[C@]4(C)[C@H]3CC[C@]12C [13a′, N′-cholesteryloxy-carbonyl-3,7-diaza-1,9-nonanediamine]",–,most effective,significant improvements,–
"CCCCCCCCCCCCOCC(C[N+](C)(C)CCCN)OCCCCCCCCCCCC.[Br-] (centres unmarked) [GAP-DLRIE, (B1)-N-(3-aminopropyl)-N,N-dimethyl-2,3-bis-(dodecyloxy)-1-propanaminium bromide]",–,–,–,in vivo efficacy relative to plasmid DNA alone [3]: about 100 fold
"N^15-cholesteryloxycarbonyl-3,7,12-triaza-1,15-pentadecanediamine [17a′]",best and most effective,–,–,"effectiveness in mouse lung relative to DC-Chol 1 [1, 4]: about 100 fold; effectiveness in mouse lung relative to plasmid DNA alone [1, 4]: approx 500 fold"
